Reference: ChEMBL document CHEMBL5325509, “Pyrrolidinedione-thiazolidinone hybrid molecules with potent cytotoxic effect in squamous cell carcinoma SCC-15 cells” (Bioorg Med Chem, 2023)
Active and inactive are the calls of the source. The rule behind the calls is not given here.

What was measured:
[1] = Upregulation of AHR expression in PPARgamma-silenced human SCC-15 cells at 1 uM incubated for 48 hrs Western blot analysis relative to control; type: functional
[2] = Cytotoxicity against human HaCaT cells assessed reduction in cellular metabolic activity incubated for 24 to 72 hrs by MTT assay; type: toxicity, cell-based
SCC-15 [3] = assay: Induction of intracellular ROS generation in human SCC-15 cells incubated for 24 to 48 hrs by DCFH-DA staining based immunofluorescence analysis; type: functional, cell-based; conditions: dose 0.001-100 µM, time 24-48 hrs
Lung cancer cell line = assay: Cytotoxicity against human Lung cancer cell line assessed as inhibition of cell growth measured at 72 hrs; type: functional, cell-based
[4] = Cytotoxicity against mouse BALB/3T3 cells assessed reduction in cellular metabolic activity incubated for 24 to 72 hrs by MTT assay; type: toxicity, cell-based
[5] = Upregulation of Caspase-3 activity in human SCC-15 cells at 100 uM measured after 48 hrs in presence of Ac-DEVD-AMC by fluorescence microplate reader analysis; type: functional
[6] = Downregulation of PPARgamma mRNA expression in PPARgamma-silenced human SCC-15 cells at 1 uM measured after 24 hrs by RT-PCR analysis; type: functional
[7] = Upregulation of Caspase-3 activity in human SCC-15 cells at 100 uM measured after 24 hrs in presence of Ac-DEVD-AMC by fluorescence microplate reader analysis; type: functional
[8] = Downregulation of NRFL2 mRNA expression in PPARgamma-silenced human SCC-15 cells at 1 uM measured after 24 hrs by RT-PCR analysis; type: functional
SCC-15 [9] = assay: Cytotoxicity against human SCC-15 cells assessed as decrease in cellular metabolic activity at 100 uM incubated for 24 hrs by resazurin reduction assay relative to control; type: functional; set-up: scale not given: the % may be the effect or the level left
SCC-15 [10] = assay: Cytotoxicity against human SCC-15 cells assessed as decrease in cellular metabolic activity incubated for 48 hrs by resazurin reduction assay; type: functional, cell-based; conditions: SCC-15, 48 h
SCC-15 [11] = assay: Induction of intracellular ROS generation in human SCC-15 cells at 0.001 to 10 uM incubated for 48 hrs by DCFH-DA staining based immunofluorescence analysis; type: functional; conditions: dose 0.001-10 µM
[12] = Cytotoxicity against human Cervical carcinoma cell assessed as inhibition of cell growth measured at 72 hrs; type: functional, cell-based
SCC-15 [13] = assay: Cytotoxicity against human SCC-15 cells assessed as decrease in cellular metabolic activity at 10 to 100 uM incubated for 48 hrs by resazurin reduction assay relative to control; type: functional; set-up: scale not given: the % may be the effect or the level left; conditions: dose 10-100 µM
[14] = Downregulation of Ki67 expression in PPARgamma-silenced human SCC-15 cells at 1 uM incubated for 48 hrs Western blot analysis relative to siRNA control; type: functional
BALB/3T3 = assay: Cytotoxicity against mouse BALB/3T3 cells assessed reduction in cellular metabolic activity at 0.1 to 100 uM incubated for 24 to 72 hrs by MTT assay; type: toxicity, cell-based; conditions: balb/3t3, 100 µM, dose lower 0.1 µM, time lower 24 hrs, dose upper 100 µM, time upper 72 hrs
Colon carcinoma cell = assay: Cytotoxicity against human Colon carcinoma cell assessed as inhibition of cell growth measured at 72 hrs; type: functional, cell-based
SCC-15 [15] = assay: Induction of intracellular ROS generation in human SCC-15 cells at 0.001 to 100 uM by DCFH-DA staining based immunofluorescence analysis; type: functional, cell-based; conditions: dose 0.001-100 µM, time 24-48 hrs, TDE = time-dependent effect
[16] = Downregulation of AHR mRNA expression in PPARgamma-silenced human SCC-15 cells at 1 uM measured after 24 hrs by RT-PCR analysis; type: functional
[17] = Upregulation of Caspase-3 activity in human SCC-15 cells at 50 uM measured after 24 hrs in presence of Ac-DEVD-AMC by fluorescence microplate reader analysis; type: functional
Leukemic tumor cell line = assay: Cytotoxicity against human Leukemic tumor cell line assessed as inhibition of cell growth measured at 72 hrs; type: functional, cell-based
[18] = Downregulation of Ki67 expression in PPARgamma-silenced human SCC-15 cells at 1 uM incubated for 48 hrs Western blot analysis relative to control; type: functional
[19] = Upregulation of PPARgamma expression in PPARgamma-silenced human SCC-15 cells at 1 uM incubated for 48 hrs Western blot analysis relative to control; type: functional
SCC-15 [20] = assay: Cytotoxicity against human SCC-15 cells assessed as decrease in cellular metabolic activity incubated for 24 hrs by resazurin reduction assay; type: functional, cell-based; conditions: SCC-15, 24 h
[21] = Upregulation of PPARgamma expression in PPARgamma-silenced human SCC-15 cells at 1 uM incubated for 48 hrs Western blot analysis relative to SiRNA control; type: functional
SCC-15 [22] = assay: Cytotoxicity against human SCC-15 cells assessed as LDH release at 1 to 100 uM incubated for 48 hrs relative to control; type: functional; conditions: dose 1-100 µM
[23] = Downregulation of AHR expression in PPARgamma-silenced human SCC-15 cells at 1 uM incubated for 48 hrs Western blot analysis relative to SiRNA control; type: functional
HaCaT = assay: Cytotoxicity against human HaCaT cells assessed reduction in cellular metabolic activity at 0.1 to 100 uM incubated for 24 to 72 hrs by MTT assay; type: toxicity, cell-based; conditions: dose lower 0.1 µM, time lower 24 hrs, dose upper 100 µM, time upper 72 hrs
SCC-15 [24] = assay: Cytotoxicity against human SCC-15 cells assessed as LDH release incubated for 24 hrs; type: functional, cell-based; conditions: SCC-15, 24 h
[25] = Upregulation of NRFL2 mRNA expression in PPARgamma knockdown human SCC-15 cells at 1 uM measured after 24 hrs by RT-PCR analysis; type: functional
[26] = Downregulation of PCNA expression in PPARgamma-silenced human SCC-15 cells at 1 uM incubated for 48 hrs Western blot analysis relative to siRNA control; type: functional
SCC-15 [27] = assay: Cytotoxicity against human SCC-15 cells assessed as LDH release incubated for 48 hrs; type: functional, cell-based; conditions: SCC-15, 48 h
SCC-15 [28] = assay: Induction of intracellular ROS generation in human SCC-15 cells at 50 to 100 uM incubated for 24 hrs by DCFH-DA staining based immunofluorescence analysis; type: functional; conditions: dose 50-100 µM
SCC-15 [29] = assay: Cytotoxicity against human SCC-15 cells assessed as LDH release at 1 to 100 uM incubated for 24 hrs relative to control; type: functional; conditions: dose 1-100 µM
Glioblastoma cell line = assay: Cytotoxicity against human Glioblastoma cell line assessed as inhibition of cell growth measured at 72 hrs; type: functional, cell-based
SCC-15 [30] = assay: Induction of intracellular ROS generation in human SCC-15 cells at 0.001 to 10 uM incubated for 24 hrs by DCFH-DA staining based immunofluorescence analysis; type: functional, cell-based; conditions: dose 0.001-10 µM
Breast carcinoma cell = assay: Cytotoxicity against human Breast carcinoma cell assessed as inhibition of cell growth measured at 72 hrs; type: functional, cell-based
[31] = Downregulation of PPARgamma expression in PPARgamma-silenced human SCC-15 cells at 1 uM incubated for 48 hrs Western blot analysis relative to control; type: functional
SCC-15 [32] = assay: Induction of intracellular ROS generation in human SCC-15 cells at 10 to 100 uM incubated for 48 hrs by DCFH-DA staining based immunofluorescence analysis; type: functional; conditions: dose 10-100 µM
SCC-15 [33] = assay: Cytotoxicity against human SCC-15 cells assessed as LDH release at 100 uM incubated for 48 hrs relative to control; type: functional
SCC-15 [34] = assay: Cytotoxicity against human SCC-15 cells assessed as LDH release at 1 uM incubated for 48 hrs relative to control; type: functional
[35] = Cytotoxicity against human HaCaT cells assessed reduction in cellular metabolic activity incubated for 72 hrs by MTT assay; type: toxicity, cell-based
[36] = Downregulation of PPARgamma expression in PPARgamma-silenced human SCC-15 cells at 1 uM incubated for 48 hrs Western blot analysis relative to SiRNA control; type: functional
SCC-15 [37] = assay: Induction of intracellular ROS generation in human SCC-15 cells at 0.001 to 1 uM incubated for 24 to 48 hrs by DCFH-DA staining based immunofluorescence analysis; type: functional, cell-based; conditions: dose 0.001-1 µM, time 24-48 hrs
[38] = Downregulation of PPARgamma mRNA expression in human SCC-15 cells at 1 uM measured after 24 hrs by RT-PCR analysis (reference value: 79.68 %); type: functional
SCC-15 [39] = assay: Induction of intracellular ROS generation in human SCC-15 cells at 50 to 100 uM incubated for 48 hrs by DCFH-DA staining based immunofluorescence analysis; type: functional; conditions: dose 50-100 µM
[40] = Cytotoxicity against mouse BALB/3T3 cells assessed reduction in cellular metabolic activity incubated for 72 hrs by MTT assay; type: toxicity, cell-based
[41] = Downregulation of AHR mRNA expression in human SCC-15 cells at 1 uM measured after 24 hrs by RT-PCR analysis (reference value: 17.30 %); type: functional
SCC-15 [42] = assay: Cytotoxicity against human SCC-15 cells assessed as LDH release at 50 uM incubated for 48 hrs relative to control; type: functional
[43] = Downregulation of PCNA expression in PPARgamma-silenced human SCC-15 cells at 1 uM incubated for 48 hrs Western blot analysis relative to control; type: functional
[44] = Upregulation of Caspase-3 activity in human SCC-15 cells at 50 uM measured after 48 hrs in presence of Ac-DEVD-AMC by fluorescence microplate reader analysis; type: functional
[45] = Downregulation of NRFL2 mRNA expression in human SCC-15 cells at 1 uM measured after 24 hrs by RT-PCR analysis (reference value: 18.36 %); type: functional
SCC-15 [46] = assay: Cytotoxicity against human SCC-15 cells assessed as LDH release at 50 nM incubated for 48 hrs relative to control; type: functional
SCC-15 [47] = assay: Cytotoxicity against human SCC-15 cells assessed as LDH release at 10 uM incubated for 48 hrs relative to control; type: functional

SMILES | IC50 [2] [µM] | Activity (SCC-15 [3]) | IC50 [4] [µM] | Activity [5] [%] | Activity [6] [%] | Activity [7] [%] | Activity [8] [%] | Activity (SCC-15 [9]) [%] | IC50 (SCC-15 [10]) [µM] | Activity (SCC-15 [13]) [%] | Activity [14] [%] | Activity (BALB/3T3) | Activity (SCC-15 [15]) | Activity [16] [%] | Activity [17] [%] | Activity [18] [%] | Activity [19] [%] | IC50 (SCC-15 [20]) [µM] | Activity [23] [%] | Activity (HaCaT) | other results
O=C1CC(N2C(=O)/C(=C/C(Cl)=C/c3ccc([N+](=O)[O-])cc3)SC2=S)C(=O)N1c1ccc(Cl)cc1 (centres undefined) | > 100 | Dose-Dependent Effect | > 100 | 55.58 | 82.31 | 135.01 | 30.64 | 34.08 | 30.4 | 31.6 | 44.91 | Non-Toxic | Tde | 9.11 | 29.03 | 42.01 | 23.81 | > 100 | 32.59 | Non-Toxic | Activity [1]: 17.79%; IC50 (Lung cancer cell line): 1 µM; Activity (SCC-15 [11]): 15.81%; IC50 [12]: 1 µM; IC50 (Colon carcinoma cell): 1 µM; IC50 (Leukemic tumor cell line): 1 µM; Activity [21]: 26.46%; Activity (SCC-15 [22]): 49.3%; EC50 (SCC-15 [24]): 14.8 µM; Activity [25]: 12.9%; Activity [26]: 34.64%; EC50 (SCC-15 [27]): 10.2 µM; Activity (SCC-15 [28]): 18.64%; Activity (SCC-15 [29]): 2%; IC50 (Glioblastoma cell line): 1 µM; Activity (SCC-15 [30]): inactive; IC50 (Breast carcinoma cell): 1 µM; Activity [31]: 46.82%; Activity (SCC-15 [32]): 13.13%
O=C1CC(N2C(=O)/C(=C/C(Cl)=C/c3ccc([N+](=O)[O-])cc3)SC2=S)C(=O)N1c1ccc(Br)cc1 (centres undefined) | > 100 | Dose-Dependent Effect | > 100 | 57.04 | 73.1 | 121.15 | 26.91 | 27.07 | 39.9 | 24.52 | 39.67 | Non-Toxic | Tde | 10.4 | 42.87 | 17 | 11.23 | > 100 | 32.23 | Non-Toxic | Activity (SCC-15 [33]): 328%; Activity (SCC-15 [34]): 1.2%; IC50 at 72 h [35]: 83.6 µM; Activity [36]: 18.45%; Activity (SCC-15 [37]): inactive; Activity [38]: 12.29%; Activity (SCC-15 [39]): 12%; IC50 at 72 h [40]: 85.2 µM; Activity [41]: 11.84%; EC50 (SCC-15 [24]): 15.4 µM; Activity [25]: 17.1%; Activity (SCC-15 [42]): 178.4%; Activity [43]: 12.74%; Activity [44]: 21.08%; Activity [45]: 8.55%; Activity [26]: 24.94%; EC50 (SCC-15 [27]): 16.9 µM; Activity (SCC-15 [46]): 2%; Activity [31]: 14.43%; Activity (SCC-15 [47]): 30%
